Measured values: publication PMC3514216, “SRC Homology 2 Domain Binding Sites in Insulin, IGF-1 and FGF receptor mediated signaling networks reveal an extensive potential interactome” (Cell Communication and Signaling : CCS, 2012)

What was measured:
Ptpn11_N SH2 domain = target: T1, Ptpn11_N SH2 domain (Homo sapiens, UniProt Q06124); test: SPOT peptide array; type: binding; settings: GST-SH2 0.25 μM; for Array positive: membrane-bound peptide, 1 mM DTT, LiCor read-out; for Peptide array intensity (X mean): spot intensity as factor of array mean
T1 sequence (Q06124 6-102 limits assumed): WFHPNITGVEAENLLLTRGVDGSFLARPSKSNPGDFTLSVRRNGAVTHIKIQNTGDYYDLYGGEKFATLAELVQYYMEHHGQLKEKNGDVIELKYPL
Source text: (§1) The use of addressable peptide arrays is a reproducible and semi-quantitative approach that has been extensively validated for studying protein interactions with peptide ligands. To investigate connections between SH2 domain proteins and their putative phosphorylated docking sites on cell surface receptors, we developed addressable arrays consisting of 192 phosphotyrosine peptides. This peptide set was assembled using 71 phosphotyrosine peptide motifs corresponding to all of the cytoplasmic tyrosine residues within the FGF receptors (FGFR1-4), insulin receptor (InsR) and IGF-1 receptor (IGF-1R) (Figure 1A). Activation of these receptors results in the phosphorylation of associated scaffold proteins, and so 75 phosphotyrosine peptides corresponding to a comprehensive list of tyrosine residues within insulin receptor substrates (IRS-1 and IRS-2) and fibroblast receptor substrates (FRS-2 and FRS-3) were included. In addition, 33 phosphotyrosine peptides were incorporated from the downstream signaling proteins PLC-γ1, p130Cas (BCAR1) and p62DOK1. […] These control peptides provide a reference and establish the empirical cut-off for designated binding interactions (Table 1). No discrimination was made against peptides on the basis of reported phosphorylation state in order to examine a diverse and unbiased set of motifs. The resulting set of 192 phosphotyrosine peptides and their corresponding position in the proteins of origin is noted in Additional file 1: Table S1. Addressable arrays were synthesized as membrane-bound 11-mer peptides using the SPOT synthesis technique. While the majority of SH2 domains recognize residues C-terminal to the phosphotyrosine in their cognate peptide ligands, additional contacts between SH2 domains and residues N-terminal to the phosphotyrosine are observed for the SH2 domain of Sh2d1a (SAP) and cannot be ruled out in other cases. Peptides were synthesized with six flanking residues C-terminal to the phosphotyrosine and four residues N-terminal to the phosphotyrosine.
SH2 domains were arrayed as GST fusion proteins and detected using anti-GST primary antibodies and near-infrared labeled secondary antibodies. In an effort to present a dataset with minimal false positives, we chose an empirical cutoff based on the array average across all peptide spots to classify interactions (Figure 1A). In cases where the intensity of the signal for an individual SH2-domain binding event exceeded the mean intensity of all the peptides on the membrane by three-fold were scored as “array positives” [22]. Non-binding was judged in cases where the intensity of a spot was less than the mean intensity of all spots on the membrane and these were scored as “array negatives”. Peptides with signal intensities between 1X and 3X mean were scored as “indeterminate” and ascribed as neither array positive binding interactions nor array-negative non-binders. […] This signature may be indicative of promiscuity differences between phosphopeptides or there may be a subset of peptides which interact in a nonspecific fashion with either the GST fusion tag or one of the antibodies used for detection, resulting in false positives. Consistent with our goal of reducing the errors associated with identifying false-positives, we probed three separate arrays with three separate preps of the GST fusion tag alone. Potentially non-specificly interacting peptides (so-called ‘sticky’ peptides) were identified as any that bound to GST with above mean intensity in two out of three separate trials. This approach identifies any peptides which interact with GST or either of the recognition antibodies, a known confounding factor for downstream analysis. This conservative approach allows us to score many significant peptides as ‘binders’ which may have been indeterminate before when incorporating the ‘sticky’ peptides into the array average. […]

panel of 50 SH2 domains = test: SPOT peptide array probed with each of 50 GST-SH2 domains; type: binding; settings: SPOT192 peptide array; for SH2 Domains >3X: list of GST-SH2 domains with spot intensity >3X array mean (array-positive); for 2X < SH2 Domains < 3X: list of GST-SH2 domains with spot intensity between 2X and 3X array mean (indeterminate range)
Source text: as §1
To assess the potential network of SH2 domain interactions we selected 50 SH2 domains representing 28 of the 38 families of SH2 domains (Figure 1B) all of which we have previously shown can be expressed and purified. These include a number of extensively studied SH2 domains (Src, Grb2, PLCγ), as well as a number of less studied SH2 domains from proteins such as Shd, She, Shf, Slnk (Sh2d6), Sh2d1a (SAP), Sh2d1b (Eat-2), and Brdg1. To address potential variability in specificity within families we employed all members from the SHB, CRK, GRB2, SRC and ABL families (families are indicated with complete Capitalized lettering).
SH2 domains were arrayed as GST fusion proteins and detected using anti-GST primary antibodies and near-infrared labeled secondary antibodies. In an effort to present a dataset with minimal false positives, we chose an empirical cutoff based on the array average across all peptide spots to classify interactions (Figure 1A). In cases where the intensity of the signal for an individual SH2-domain binding event exceeded the mean intensity of all the peptides on the membrane by three-fold were scored as “array positives” [22]. Non-binding was judged in cases where the intensity of a spot was less than the mean intensity of all spots on the membrane and these were scored as “array negatives”. Peptides with signal intensities between 1X and 3X mean were scored as “indeterminate” and ascribed as neither array positive binding interactions nor array-negative non-binders. […] This signature may be indicative of promiscuity differences between phosphopeptides or there may be a subset of peptides which interact in a nonspecific fashion with either the GST fusion tag or one of the antibodies used for detection, resulting in false positives. […]

Row | Substance | Array positive (Ptpn11_N SH2 domain) | Peptide array intensity (X mean) (Ptpn11_N SH2 domain) | SH2 Domains >3X (panel of 50 SH2 domains) | 2X < SH2 Domains < 3X (panel of 50 SH2 domains)
1 | ELSNpYICMGGK [11-mer phosphotyrosine peptide, IRS-1 (Y465)] | No (Peptide spots with average intensity values between 1X-3X the array mean were defined as ‘indeterminate’. Those with intensities below 1X mean were defined as array negative) | 0.9 X Mean |  | 
2 | APVSpYADMRTG [11-mer phosphotyrosine peptide, IRS-1 (Y1012)] | No (Peptide spots with average intensity values between 1X-3X the array mean were defined as ‘indeterminate’. Those with intensities below 1X mean were defined as array negative) | 0.59 X Mean |  | 
3 | SIEEpYTEMMPA [11-mer phosphotyrosine peptide, IRS-1 (Y551)] | No (Peptide spots with average intensity values between 1X-3X the array mean were defined as ‘indeterminate’. Those with intensities below 1X mean were defined as array negative) | 0.56 X Mean |  | 
4 | DPNGpYMMMSPS [11-mer phosphotyrosine peptide, IRS-1 (Y662)] | No (Peptide spots with average intensity values between 1X-3X the array mean were defined as ‘indeterminate’. Those with intensities below 1X mean were defined as array negative) | 0.54 X Mean |  | 
5 | SNPEpYLSASDV [A19] |  |  | VAV1 | 
6 | PMHNpYVNTENV [G07] |  |  | GADS, GRAP, GRB2, SH3BP2 | PI3K1_C, VAV1
7 | QEGWpYRALTDL [D05] |  |  | CRK | ABL1, ABL2, TENC1
8 | SSDSpYAVIDLK [G15] |  |  | SH2D1B, SHC1, SHIP1 | HCK
9 | FKRSpYEEHIPY [B05] |  |  | SHB, SHF, SHD, SHE | BRDG1, TENC1
10 | VNPEpYFSAADV [B12] |  |  |  | Sh2b
11 | VIMLpYVFHRKR [B11] |  |  | BCAR3, BMX, BRDG1, BRK, DAPP1, FER, MATK, MIST, PI3K1_N, PLCG2_N, PTPN11_N, PTPN11_C, RASA1_C, RIN1, SHB, SHF, SHD, SHE, TENC1 | GRB2, PI3K1_C, PLCG2_C, SH3BP2, SYK_C
12 | CLRRpYGYDSNL [F22] |  |  | BCAR3, BMX, BRDG1, CRK, CRKL, DAPP1, FER, GRB7, MATK, MIST, PLCG2_N, SHB, SHF, SHD, TENC1 | ITK, PLCG2_C, PTPN11_C, RIN1, SH2D2A, SH3BP2
13 | QVHTpYVNTTGV [G02] |  |  | GADS, GRAP, GRB2, GRB7, PI3K1_N, PI3K1_C | ABL1, ZAP70_N
14 | VKWHpYLALRRY [F21] |  |  | BCAR3, BMX, BRDG1, BRK, DAPP1, FER, GRB2, MATK, MIST, PI3K1_N, PI3K1_C, PLCG2_N, PLCG2_C, PTPN11_N, PTPN11_C, RIN1, Sh2b, SH3BP2, SHB, SHF, SHD, TENC1 | FGR, ITK, RASA1_C, SH2D2A, SHE, SYK_C
15 | NKLVpYENINGL [G04] |  |  | GADS, GRAP, GRB2, GRB7, SH2D2A, SH3BP2 | ABL1
16 | ENSLpYSPTWEG [H14] |  |  | ABL2, FYN, LYN, NCK1, SHC1, VAV1 | ABL1, BLK, LCK, SH2D1B, SHIP1
17 | EDYDpYVHLQGK [H13] |  |  | FYN, LCK, LYN, MIST | BLK, SH2D1B, SHC1
18 | WDTGpYDSDERR [G03] |  |  | SH3BP2, SRC | DAPP1, FER, HCK, ZAP70_N
19 | PFEQpYSPGGQD [F12] |  |  |  | ZAP70_N
20 | AEDSpYGLVAPA [D06] |  |  | FGR, FYN, HCK, LCK, LYN, SH2D1B, SHC1, SHIP1, SRC, YES | BLK
21 | NGILpYLEDPVN [G22] |  |  | Sh2b, SHB, SHF, SYK_C | 
22 | QQGLpYQVPGPS [H07] |  |  | CRK, CRKL | 

Row | Substance | Array positive (Ptpn11_N SH2 domain) | Peptide array intensity (X mean) (Ptpn11_N SH2 domain) | SH2 Domains >3X (panel of 50 SH2 domains) | 2X < SH2 Domains < 3X (panel of 50 SH2 domains)
23 | SIEEpYTEMMPA [C03] |  |  | BRK, SHC1 | BLK, FER, FGR, LCK, PI3K1_C
24 | DLKSpYLRSLRP [A22] |  |  | BCAR3, BMX, BRDG1, FER, MIST, PLCG2_N, Sh2b, SHB, SHF, TENC1 | BRK, ITK, MATK, PLCG2_C, PTPN11_C, RIN1, SHD, SYK_C
25 | DPNGpYMMMSPS [C07] |  |  | PI3K1_C | 
26 | KKPLpYWDLYEH [H17] |  |  | ABL1, BCAR3, BMX, CRKL, DAPP1, GRB7, ITK, MATK, PLCG2_N, PLCG2_C, RASA1_N, RASA1_C, SH2D2A, SH3BP2, TENC1 | PI3K1_C, Sh2b
27 | VLSYpYSLPRSF [C13] |  |  | CRK, CRKL, Sh2b, SH2D2A, SHF, SYK_C | BRDG1, PLCG2_C, PTPN11_C, SHB
28 | PNGHpYILSRGG [C02] |  |  | BRDG1, CRK, DAPP1, MIST, PTPN11_C, RASA1_C, SHB, SHF, SHD, SYK_C, TENC1 | BCAR3, BMX, FER, PLCG2_N, Sh2b, SHE
29 | RLEYpYESEKKW [D01] |  |  | SH3BP2 | BRDG1, FER, MIST, PTPN11_C, Sh2b, SH2D1B
30 | PCSVpYVPDEWE [A20] |  |  | BMX, DAPP1, ITK, PLCG2_N, PLCG2_C, RASA1_N, RASA1_C, SH2D1B, VAV1 | FGR, FYN, MATK, SH2D2A, SHC1
31 | PQDIpYDVPPVR [H11] |  |  | CRK, CRKL, NCK1, SHIP1, ZAP70_N | FGR, FYN, LCK, LYN
32 | LIGIpYRLCLTS [B24] |  |  |  | BCAR3, BRDG1, MIST, SHD
33 | NPGNpYTARIQA [B08] |  |  | BRDG1, MIST, PLCG2_N, PTPN11_C, SHF, SHD, SYK_C | DAPP1, Sh2b, SH3BP2, SHB, SHE
34 | RQLNpYIQVDLE [G09] |  |  | BCAR3, BMX, BRDG1, DAPP1, ITK, MIST, PLCG2_C, PTPN11_N, RASA1_N, SHB, SHF, SHD, SHE, SYK_C, VAV1, ZAP70_N | PTPN11_C, Sh2b
35 | DGPLpYVIVEYA [E06] |  |  | ITK, MIST, RASA1_N, SHB, SHF, SHE, SYK_C | SHD, TENC1
36 | TEPTpYFYVTDY [A14] |  |  | BRK, ITK, RASA1_N | MATK, PLCG2_N, SH2D1B, SYK_C
37 | QDSWpYQALLQL [B22] |  |  | ABL2, BCAR3, CRK, MATK, SH2D2A, SYK_C, TENC1, VAV1 | BMX, GADS, RIN1, Sh2b, SHD
38 | RKRTpYSLTTPA [D13] |  |  | BCAR3, BRDG1, ITK, PLCG2_N, TENC1 | BMX, BRK, MIST, SHB, SHF
39 | QDSLpYSDPLDS [H16] |  |  | ABL1, FYN, HCK, LCK, LYN, NCK1, RASA1_C, SRC, ZAP70_N | BLK, FGR, SHIP1
40 | ALLNpYENLPSL [G05] |  |  | ABL1, ABL2, CRK, FER, GADS, GRAP, GRB2, GRB7, PI3K1_C, SH2D2A, SH3BP2, TENC1 | BRK, PI3K1_N
41 | VSCApYQVARGM [F14] |  |  | BRDG1 | CRK, ITK, MIST, PLCG2_N, PLCG2_C, SHF, SYK_C
42 | QSHTpYVNTPAS [G12] |  |  | GADS, GRAP, GRB2, GRB7, VAV1 | ABL1, SH2D2A
43 | NSALpYSQVQKS [H24] |  |  | BCAR3, BRDG1, CRK, CRKL, PTPN11_C, SH2D1B, SHC1, SHIP1 | ABL2, BMX, FER, PTPN11_N, RIN1
44 | PRQSpYVDTSPA [C20] |  |  | PI3K1_C | 
